# According to PMC2074382 (British Journal of Cancer, 1996):
# Where “and” joins values, the source holds several entries; their conditions need not be identical. Identical values can stand only once. Counter-ions that a name gives are not always drawn.
# Experiment: Pharmacokinetics (lactone form, HPLC, non-compartmental) in plasma and urine, days 1 and 4 of first course
# Text: British Journal of Cancer (1996) 73, 744-750 O (C? 1996 Stockton Press All rights reserved 0007-0920/96 $12.00 Phase I and pharmacological study of the new topoisomerase I inhibitor G1147211, using a daily x 5 intravenous administration CJH Gerrits', GJ Creemers', JHM Schellens', P Wissel2, AS Th Planting', R Kunka2, K Selinger2, M de Boer-Dennert', Y Marijnen3, M Harteveld' and J Verweijl 'Department of Medical Oncology, Rotterdam Cancer Institute, Rotterdam, The Netherlands; 2Glaxo Wellcome Inc, Department of Clinical Pharmacology, NC, USA; 3Glaxo Wellcome Inc, Department of Clinical Research, Zeist, The Netherlands. Summary Topoisomerase I inhibitors are interesting anti-cancer agents with a novel mechanism of action. […] In subsequent patient cohorts the dose was escalated from 0.3 to 1.5 mg m-2 day-'. Pharmacokinetics analysis was performed on days 1 and 4 of the first course using a validated high- performance liquid chromatographic assay and non-compartmental methods. […] Its further development was stopped because of unpredictable and severe myelosuppression, gastrointestinal toxicity and haemorrhagic cystitis. In the late 1980s two discoveries brought about a renewal of interest in CPT; firstly, topoisomerase I was identified as the single cellular target of CPT (Hsiang et al., 1985; Hsiang and Liu, 1988) and, secondly, an overexpression of topoisomerase I was found in various tumour cell lines but not in normal tissues (Giovanella et al., 1989; Hirabayaski et al., 1992; Potmesil et al., 1988). Topoisomerase I is a nuclear enzyme that resolves topological problems of the torsionally strained (supercoiled) DNA (Slichenmyer et al., 1993). This is achieved by forming a covalent adduct between topoisome- rase I and the DNA, termed the cleavable complex. This catalytic intermediate creates single-strand DNA breaks, allowing the DNA molecule to rotate around the intact DNA strand at the cleavage site, leading to a relaxation of the DNA molecule and in this way replication, transcription and other DNA functions can proceed. These enzyme- bridged breaks are then resealed by topoisomerase I. CPT stabilises the cleavable complexes, thereby preventing resealing of single-strand DNA breaks in the presence of the drug (Covey et al., 1989; D'Arpa and Liu, 1989; Eng et al., 1988). Cytotoxicity is specific to the S-phase of the cell cycle because the double-strand breaks that occur during this phase are more difficult to repair in the presence of the drug (Horwitz and Horwitz, 1973). […] Other eligibility criteria included: (1) age>, 18 years; (2) an Eastern Cooperative Oncology Group (ECOG) performance status <2; (3) a predicted life expectancy of at least 3 months; (4) no previous anti-cancer therapy for at least 3 weeks (6 weeks for previous nitro- soureas or mitomycin C); (5) adequate haemato- poietic (WBC) 3 x 109 -', ANC > 1.5 x 109 1-' and platelets 100 x 10 1- 1), hepatic (bilirubin within normal limits, AST, ALT and/or alkaline phosphatase < 2.0 x normal), and renal (serum creatinine < 130 imol 1-') functions. All patients gave written informed consent.
# [1] = 0.3 mg m-2, day 1, individual patients 1-3 in order
# [2] = 0.3 mg m-2, day 1, mean of dose level
# [3] = 0.3 mg m-2, day 4, individual patients 1-3 in order
# [4] = 0.3 mg m-2, day 4, mean of dose level
# [5] = 0.6 mg m-2, day 1, individual patients 4-6 in order
# [6] = 0.6 mg m-2, day 1, mean of dose level
# [7] = 0.6 mg m-2, day 4, individual patients 4-6 in order
# [8] = 0.6 mg m-2, day 4, mean of dose level
# [9] = 1.2 mg m-2, day 1, individual patients 7-12 in order
# [10] = 1.2 mg m-2, day 1, mean of dose level
smiles,measurement,setting,value
"CC[C@@]1(O)C(=O)OCc2c1cc1n(c2=O)Cc2c-1nc1cc3c(cc1c2CN1CCN(C)CC1)OCCO3 [GI147211, [7 - (methylpiperazinomethylene) - 10,11 - ethylene-dioxy-20(S)] camptothecin dihydrochloride]",AUCinf,[1],4.93 ng·h/mL and 4.04 ng·h/mL and 4.77 ng·h/mL
same,"Clearance, total plasma clearance",[1],1014 ml min-1 m-2 and 1238 ml min-1 m-2 and 1048 ml min-1 m-2
same,Cmax,[1],3.63 ng/mL and 4.27 ng/mL and 3.73 ng/mL
same,MRT,[1],2.89 h and 1.66 h and 3.33 h
same,Vdss,[1],161 l m-2 and 104 l m-2 and 194 l m-2
same,"t1/2, elimination half-life",[1],2.96 h and 1.99 h and 2.63 h
same,tmax,[1],0.42 h
same,"AUCinf, mean",[2],4.58 ng·h/mL
same,"Clearance, mean",[2],1100 ml min-1 m-2
same,"Cmax, mean",[2],3.88 ng/mL
same,"MRT, mean",[2],2.63 h
same,"Vdss, mean",[2],153 l m-2
same,"t1/2, mean",[2],2.52 h
same,"tmax, mean",[2],0.42 h
same,AUCinf,[3],6.19 ng·h/mL and 6.79 ng·h/mL and 7.46 ng·h/mL
same,"Clearance, total plasma clearance",[3],808 ml min-1 m-2 and 736 ml min-1 m-2 and 670 ml min-1 m-2
same,Cmax,[3],4.73 ng/mL and 4.30 ng/mL and 5.11 ng/mL
same,MRT,[3],4.62 h and 4.73 h and 5.30 h
same,Vdss,[3],207 l m-2 and 199 l m-2 (2×)
same,"t1/2, elimination half-life",[3],4.82 h and 2.34 h and 3.81 h
same,tmax,[3],0.25 h (2×) and 0.42 h
same,"AUCinf, mean",[4],6.81 ng·h/mL
same,"Clearance, mean",[4],738 ml min-1 m-2
same,"Cmax, mean",[4],4.71 ng/mL
same,"MRT, mean",[4],4.88 h
same,"Vdss, mean",[4],202 l m-2
same,"t1/2, mean",[4],3.65 h
same,"tmax, mean",[4],0.31 h
same,AUCinf,[5],10.10 ng·h/mL and 15.63 ng·h/mL and 14.00 ng·h/mL
same,"Clearance, total plasma clearance",[5],990 ml min-1 m-2 and 640 ml min-1 m-2 and 714 ml min-1 m-2
same,Cmax,[5],9.16 ng/mL and 9.41 ng/mL and 11.46 ng/mL
same,MRT,[5],4.01 h and 3.74 h and 3.52 h
same,Vdss,[5],223 l m-2 and 134 l m-2 and 140 l m-2
same,"t1/2, elimination half-life",[5],3.35 h and 2.81 h and 2.80 h
same,tmax,[5],0.42 h
same,"AUCinf, mean",[6],13.25 ng·h/mL
same,"Clearance, mean",[6],781 ml min-1 m-2
same,"Cmax, mean",[6],10.01 ng/mL
same,"MRT, mean",[6],3.76 h
same,"Vdss, mean",[6],166 l m-2
same,"t1/2, mean",[6],2.98 h
same,"tmax, mean",[6],0.42 h
same,AUCinf,[7],11.21 ng·h/mL and 15.10 ng·h/mL and 15.94 ng·h/mL
same,"Clearance, total plasma clearance",[7],892 ml min-1 m-2 and 662 ml min-1 m-2
same,Cmax,[7],7.60 ng/mL and 8.13 ng/mL and 9.29 ng/mL
same,MRT,[7],4.89 h and 5.38 h and 6.35 h
same,Vdss,[7],246 l m-2 and 203 l m-2 and 224 l m-2
same,"t1/2, elimination half-life",[7],3.42 h and 3.78 h and 4.15 h
same,tmax,[7],0.42 h (2×) and 0.25 h
same,"AUCinf, mean",[8],14.08 ng·h/mL
same,"Clearance, mean",[8],727 ml min-1 m-2
same,"Cmax, mean",[8],8.34 ng/mL
same,"MRT, mean",[8],5.54 h
same,"Vdss, mean",[8],224 l m-2
same,"t1/2, mean",[8],3.78 h
same,"tmax, mean",[8],0.36 h
same,AUCinf,[9],17.57 ng·h/mL and 24.95 ng·h/mL and 16.70 ng·h/mL and 15.05 ng·h/mL and 19.86 ng·h/mL and 19.42 ng·h/mL
same,"Clearance, total plasma clearance",[9],1138 ml min-1 m-2 and 802 ml min-1 m-2 and 1198 ml min-1 m-2 and 1329 ml min-1 m-2 and 1007 ml min-1 m-2 and 1030 ml min-1 m-2
same,Cmax,[9],17.33 ng/mL and 11.97 ng/mL and 15.99 ng/mL and 12.83 ng/mL and 14.11 ng/mL and 17.65 ng/mL
same,MRT,[9],3.01 h and 5.18 h and 2.94 h and 3.04 h and 3.98 h and 2.66 h
same,Vdss,[9],189 l m-2 and 237 l m-2 and 193 l m-2 and 223 l m-2 and 225 l m-2 and 149 l m-2
same,"t1/2, elimination half-life",[9],3.62 h and 4.04 h and 2.54 h and 2.40 h and 5.10 h and 2.97 h
same,tmax,[9],0.42 h (5×) and 0.25 h
same,"AUCinf, mean",[10],18.93 ng·h/mL
same,"Clearance, mean",[10],1084 ml min-1 m-2
